# Source: patent US20240245673A1, “Papain-like protease (PLpro) inhibitors” (Pfizer Inc., priority 2022, published 2024)
# Molecular target: SARS-CoV-2 Papain like protease (PLpro) (Severe acute respiratory syndrome coronavirus 2 (2019-nCoV) (SARS-CoV-2), UniProt P0DTD1)
# Assay: Papain Like Protease (PLpro) biochemical assay with profluorogenic substrate Z-RLRGG-AMC
# Details: IC50 (μM), SARS-CoV-2 PLpro 6.25 nM, 25 μM Z-RLRGG-AMC substrate, 60 minute reaction
row,Structure (SMILES),IC50 [µM]
1,"Cc1ccc(N2CC3CC(C2)N3)cc1C(=O)N[C@H](C)c1cc(-c2cnn(C)c2)nc2ccccc12 [Example 251, 5-(3,6-diazabicyclo[3.1.1]heptan-3-yl)-2-methyl-N—((R)-1-(2-(1-methyl-1H-pyrazol-4-yl)quinolin-4-yl)ethyl)benzamide]",0.005

# Same assay, conditions: SARS-CoV-2 PLpro 6.25 nM, 25 μM Z-RLRGG-AMC substrate, 60 minute reaction; read-out: IC50
row,Structure (SMILES),IC50 [µM]
1,"Cc1ccc(N2C[C@H]3C[C@@H]2CN3C)cc1C(=O)N[C@H](C)c1cc(-c2cnn(C)c2)nc2ccccc12 (single isomer, unassigned) [Example 280, 2-methyl-N—((R)-1-(2-(1-methyl-1H-pyrazol-4-yl)quinolin-4-yl)ethyl)-5-((1R*,4R*)-5-methyl-2,5-diazabicyclo[2.2.1]heptan-2-yl)benzamide]",0.017
2,"Cc1cc(CN(C)C(=O)c2ncc[nH]2)ccc1C(=O)N[C@H](C)c1cc(-c2cnn(C)c2)nc2ccccc12 [Example 265, (R)-N-methyl-N-(3-methyl-4-((1-(2-(1-methyl-1H-pyrazol-4-yl)quinolin-4-yl)ethyl)carbamoyl)benzyl)-1H-imidazole-2-carboxamide]",0.14
3,CCN(C)C(=O)Cn1cc(-c2cc(C3(NC(=O)c4ccc(COCc5cscn5)cc4C)CC3)c3ccccc3n2)cn1 [Example 364],< 0.001
4,"Cc1cc(COCc2ncsc2CO)ccc1C(=O)NC1(c2cc(-c3cnn(C)c3)nc3ccccc23)CC1 [Example 330, 4-(((5-(hydroxymethyl)thiazol-4-yl)methoxy)methyl)-2-methyl-N-(1-(2-(1-methyl-1H-pyrazol-4-yl)quinolin-4-yl)cyclopropyl)benzamide]",< 0.001
5,"Cc1cc(CN(C)Cc2cscn2)ccc1C(=O)N[C@H](C)c1cc(-c2cnn(C)c2)nc2ccccc12 [Example 266, (R)-2-methyl-4-((methyl(thiazol-4-ylmethyl)amino)methyl)-N-(1-(2-(1-methyl-1H-pyrazol-4-yl)quinolin-4-yl)ethyl)benzamide]",0.024
6,"Cc1cc(C(C)(C)NC(=O)c2ncc[nH]2)ccc1C(=O)N[C@H](C)c1cc(-c2cnn(C)c2)nc2ccccc12 [Example 215, (R)-N-(2-(3-methyl-4-((1-(2-(1-methyl-1H-pyrazol-4-yl)quinolin-4-yl)ethyl)carbamoyl)phenyl)propan-2-yl)-1H-imidazole-2-carboxamide]",0.144
7,"Cc1cc(C(=O)NCc2cscn2)ccc1C(=O)N[C@H](C)c1cc(-c2cnn(C)c2)nc2ccccc12 [Example 201, (R)-2-methyl-N1-(1-(2-(1-methyl-1H-pyrazol-4-yl)quinolin-4-yl)ethyl)-N4-(thiazol-4-ylmethyl)terephthalamide]",0.003
8,"Cc1ccc(CN)cc1C(=O)N[C@H](C)c1cc(-c2cc(C(=O)N(C)C)c[nH]2)nc2ccccc12 [Example 56, 5-{4-[(1R)-1-{[5-(aminomethyl)-2-methylphenyl]formamido}ethyl]quinolin-2-yl}-N,N-dimethyl-1H-pyrrole-3-carboxamide]",0.02
9,"Cc1ccccc1C(=O)NC(C)c1cc(C2CC(F)(F)C2)nc2ccccc12 (stereo in doubt) [Example 154, N-{(1R)-1-[2-(3,3-difluorocyclobutyl)quinolin-4-yllethyl}-2-methylbenzamide]",0.988
10,"Cc1cc(COCc2cocn2)ccc1C(=O)NC1(c2cc(-c3cnn(C)c3)cc3ncccc23)CC1 [Example 345, 2-methyl-N-(1-(7-(1-methyl-1H-pyrazol-4-yl)quinolin-5-yl)cyclopropyl)-4-((oxazol-4-ylmethoxy)methyl)benzamide]",< 0.001
11,Cc1ccc(CNS(C)(=O)=O)cc1C(=O)N[C@H](C)c1cc(-c2cnn(C)c2)nc2ccccc12 [Example 61],0.046
12,"COC(=O)/C=C/C(=O)NNC(=O)CCc1ccccc1C(=O)NC1(c2cc(-c3cnn(C)c3)nc3ccccc23)CC1 [Example 225, methyl (E)-4-(2-(3-(2-((1-(2-(1-methyl-1H-pyrazol-4-yl)quinolin-4-yl)cyclopropyl)carbamoyl)phenyl)propanoyl)hydrazineyl)-4-oxobut-2-enoate]",0.006
13,"Cc1ccccc1C(=O)NC(C)c1cc(-c2cncc(F)c2)nc2ccccc12 (centres unmarked) [Example 137, N-{1-[2-(5-fluoropyridin-3-yl)quinolin-4-yl]ethyl}-2-methylbenzamide]",1.13
14,"Cc1ccc(CN)cc1C(=O)N[C@H](C)c1cc(-n2cnnc2)nc2ccccc12 [Example 16, (R)—N-(1-(2-(4H-1,2,4-triazol-4-yl)quinolin-4-yl)ethyl)-5-(aminomethyl)-2-methylbenzamide]",0.149
15,Cc1ccccc1C(=O)NC(C)c1cc(NCC2CCN(S(C)(=O)=O)CC2)nc2ccccc12 (centres unmarked) [Example 150],1.07
16,"Cc1ccccc1C(=O)NC(C)c1cc(N(C)CCC(=O)N(C)C)nc2ccccc12 (centres unmarked) [Example 143, N-[1-(2-{[3-(dimethylamino)-3-oxopropyl](methyl)amino}-quinolin-4-yl)ethyl]-2-methylbenzamide]",8.48
17,"Cc1ccccc1C(=O)NC(C)c1cc(CN2CCCC2=O)nc2ccccc12 (stereo in doubt) [Example 156, 2-methyl-N-[(1R)-1-{2-[(2-oxopyrrolidin-1-yl)-methyl]quinolin-4-yl}ethyl]benzamide]",7.22
18,"Cc1ccc(CN)cc1C(=O)NC(C)c1cc(-c2cnn(C)c2)c(O)c2ccccc12 (centres unmarked) [Example 217, 5-(aminomethyl)-N-(1-(4-hydroxy-3-(1-methyl-1H-pyrazol-4-yl)naphthalen-1-yl)ethyl)-2-methylbenzamide]",0.119
19,"Cc1ccc(NC(=O)[C@H]2CCCCN2)cc1C(=O)N[C@H](C)c1cc(N)nc2ccccc12 (single isomer, unassigned) [Example 27, (R)—N-(3-(((R*)-1-(2-aminoquinolin-4-yl)ethyl)carbamoyl)-4-methylphenyl)piperidine-2-carboxamide]",0.057

row,Structure (SMILES),IC50 [µM]
1,"CC(=O)N(Cc1ccc(C(=O)N[C@H](C)c2cc(-c3cnn(C)c3)nc3ccccc23)c(C)c1)Cc1cscn1 [Example 267, (R)-2-methyl-N-(1-(2-(1-methyl-1H-pyrazol-4-yl)quinolin-4-yl)ethyl)-4-((N-(thiazol-4-ylmethyl)acetamido)methyl)benzamide]",0.21
2,Cc1cc(COCc2cscn2)ccc1C(=O)NC1(c2cc(-c3cnn(C(C)(C)C(=O)N(C)C)c3)nc3ccccc23)CC1 [Example 363],< 0.001
3,"Cc1ccc(NC(=O)[C@H]2CCCCN2)cc1C(=O)N[C@H](C)c1cc(-c2cnn(C)c2)cc2ccccc12 (single isomer, unassigned) [Example 67]",0.272
4,"Cc1ccc(N2CCNCC2)cc1C(=O)NC1(c2cc(-c3ccc(C(=O)N(C)C)[nH]3)cc3ccccc23)CC1 [Example 276, N,N-dimethyl-5-(4-(1-(2-methyl-5-(piperazin-1-yl)benzamido)cyclopropyl)naphthalen-2-yl)-1H-pyrrole-2-carboxamide]",0.003
5,"Cc1ccc(NC(=O)[C@H]2CCCCN2)cc1C(=O)NC(C)c1cc(N)nc2ccccc12 (mixture of isomers) [Example 25, (R)—N-(3-(((RS)-1-(2-aminoquinolin-4-yl)ethyl)carbamoyl)-4-methylphenyl)piperidine-2-carboxamide]",0.1
6,Cc1cc(C(=O)NCc2cscn2)ccc1C(=O)NC1(c2cc(-c3cnn(C)c3)nc3ccccc23)CC1 [Example 254],0.005
7,"CNC(=O)c1c[nH]c(-c2cc([C@@H](C)NC(=O)c3cc(CN)ccc3C)c3ccccc3n2)c1 [Example 22, (R)-5-(4-(1-(5-(aminomethyl)-2-methylbenzamido)ethyl)quinolin-2-yl)-N-methyl-1H-pyrrole-3-carboxamide]",0.017
8,"Cc1ccccc1C(=O)NC(C)c1cc(-c2cn(C(C)C)nc2C)nc2ccccc12 (centres unmarked) [Example 136, 2-methyl-N-(1-{2-[3-methyl-1-(propan-2-yl)-1H-pyrazol-4-yl]quinolin-4-yl}ethyl) benzamide]",1.41
9,"Cc1ccc(NC(=O)[C@H]2CCCCN2)cc1C(=O)N[C@H](C)c1cc(-c2ccn[nH]2)cc2ccccc12 (single isomer, unassigned) [Example 69]",0.908
10,Cc1cc(COCc2cscn2)ccc1C(=O)NC1(c2cc(-c3cnn(CCC(=O)N(C)C)c3)nc3ccccc23)CC1 [Example 362],< 0.001
11,"Cc1ccc(NC(=O)[C@H]2CCCCN2)cc1C(=O)NC(C)c1cc(-c2ccn[nH]2)cc2ccccc12 (mixture of isomers) [Example 65, (2R)-N-(3-((1-(3-(1H-pyrazol-5-yl)naphthalen-1-yl)ethyl)carbamoyl)-4-methylphenyl)piperidine-2-carboxamide]",0.021
12,"COC[C@@H](OCc1cocn1)c1ccc(C(=O)NC2(c3cc(-c4cnn(C)c4)nc4ccccc34)CC2)c(C)c1 (single isomer, unassigned) [Example 339]",< 0.001
13,"Cc1ccccc1C(=O)NC(C)c1cc(-c2ccc3nonc3c2)nc2ccccc12 (centres unmarked) [Example 111, N-{1-[2-(2,1,3-benzoxadiazol-5-yl)quinolin-4-yl]ethyl}-2-methylbenzamide]",17.3
14,"Cc1ccc(CN)cc1C(=O)N[C@H](C)c1cc(-c2cnn(C)c2)nc2ccccc12 [Example 11, (R)-5-(aminomethyl)-2-methyl-N-(1-(2-(1-methyl-1H-pyrazol-4-yl)quinolin-4-yl)ethyl)benzamide]",0.027
15,"Cc1ccc(N2CC3CN(C)CC3C2)cc1C(=O)N[C@H](C)c1cc(-c2cnn(C)c2)nc2ccccc12 (stereo partly drawn) [Example 262, 2-methyl-N-((R)-1-(2-(1-methyl-1H-pyrazol-4-yl)quinolin-4-yl)ethyl)-5-(5-methylhexahydropyrrolo[3,4-c]pyrrol-2(1H)-yl)benzamide]",0.008
16,"Cc1ccc(CN)cc1C(=O)N[C@H](C)c1cc(-c2cnn(C)c2)cc2ccccc12 (single isomer, unassigned) [Example 8]",0.025
17,"Cc1ccc(CN)cc1C(=O)NC(C)c1cc(N2CCCC2=O)nc2ccccc12 (centres unmarked) [Example 34, 5-(aminomethyl)-2-methyl-N-(1-(2-(2-oxopyrrolidin-1-yl)quinolin-4-yl)ethyl)benzamide]",1.45
18,"Cc1ccccc1C(=O)NC(C)c1cc(-c2cnn(C(C)(C)C)c2)nc2ccccc12 (centres unmarked) [Example 113, N-{1-[2-(1-tert-butyl-1H-pyrazol-4-yl)quinolin-4-yl]ethyl}-2-methylbenzamide]",0.79
